Source: the NIST ThermoML archive (doi:10.1016/j.jct.2005.03.013)
± gives the expanded uncertainty stated by the source.

Assays:
[1] = molar heat capacity at constant pressure; details: 101.33 kPa, Liquid, Large sample (1 g) DSC
[2] = for viscosity: 101.33 kPa, Liquid

| Triple point temperature ([2]; Crystal) [K] | SMILES | molar heat capacity at constant pressure ([1]; 298 K) [J/K/mol] | molar heat capacity at constant pressure ([1]; 323 K) [J/K/mol] | viscosity ([2]; 283 K) [mPa·s] | viscosity ([2]; 293 K) [mPa·s] | viscosity ([2]; 298 K) [mPa·s] | viscosity ([2]; 303 K) [mPa·s] | viscosity ([2]; 313 K) [mPa·s] | viscosity ([2]; 323 K) [mPa·s] | viscosity ([2]; 333 K) [mPa·s] | viscosity ([2]; 343 K) [mPa·s] | Glass transition temperature [2] [°C] | Triple point temperature ([2]; Metastable crystal) [K] |
| --- | --- | --- | --- | --- | --- | --- | --- | --- | --- | --- | --- | --- | --- |
|  | CCCC[n+]1cccc(C)c1.O=S(=O)([N-]S(=O)(=O)C(F)(F)F)C(F)(F)F | 622 ± 63 | 641 ± 65 | 138 ± 8 | 80 ± 4 | 63 ± 3 | 51 ± 2 | 34 ± 2 | 24 ± 1 | 18 ± 1 | 14 ± 1 | -84 ± 4 |  |
|  | CCCCCCCCn1cc[n+](C)c1.O=S(=O)([N-]S(=O)(=O)C(F)(F)F)C(F)(F)F | 654 ± 66 | 677 ± 68 |  |  |  |  |  |  |  |  | -84 ± 4 |  |
|  | CCCCCCCCn1cc[n+](C)c1.[Br-] [1-methyl-3-octylimidazolium bromide] | 392 ± 40 | 408 ± 41 |  |  |  |  |  |  |  |  |  |  |
|  | CCCCCC[n+]1cccc(C)c1.O=S(=O)([N-]S(=O)(=O)C(F)(F)F)C(F)(F)F | 624 ± 63 | 644 ± 65 | 197 ± 14 | 110 ± 7 | 85 ± 5 | 67 ± 4 | 44 ± 2 | 30 ± 2 | 22 ± 1 | 16 ± 1 | -82 ± 4 |  |
|  | CCCCCC[n+]1ccc(N2CCC(C)CC2)cc1.[Br-] [1-hexyl-4-(4-methyl-1-piperidinyl)pyridinium bromide] |  |  |  |  |  |  |  |  |  |  | 33 ± 4 |  |
| 469 ± 3 | CCCCCC[n+]1ccc(N(C)C)cc1.[Br-] [4-(dimethylamino)-1-hexylpyridinium bromide] |  |  |  |  |  |  |  |  |  |  |  |  |
|  | CCOC(=O)c1ccc[n+](CC)c1.CCOS(=O)(=O)[O-] [3-(ethoxycarbonyl)-1-ethylpyridinium ethylsulfate] | 513 ± 52 | 530 ± 54 | 19610 ± 4800 | 5675 ± 1200 | 3173 ± 570 | 1986 ± 310 | 846 ± 110 | 405 ± 40 | 221 ± 17 | 130 ± 9 | -44 ± 3 |  |
|  | CCCC[n+]1cccc(C)c1.[Br-] [1-butyl-3-methylpyridinium bromide] |  |  |  |  |  |  |  |  |  |  | -36 ± 4 |  |
|  | CCCCCCCC[n+]1ccn(C)c1.F[B-](F)(F)F [1-methyl-3-octylimidazolium tetrafluoroborate] | 506 ± 51 | 526 ± 53 |  |  |  |  |  |  |  |  | -81 ± 4 |  |
| 392 ± 3 | CCCCCC[n+]1ccc(N(C)C)c(C)c1.[Br-] [4-(dimethylamino)-1-hexyl-3-methylpyridinium bromide] |  |  |  |  |  |  |  |  |  |  | -2 ± 4 |  |
|  | CCCCCC[n+]1cccc(C)c1.[Br-] [1-hexyl-3-methylpyridinium bromide] | 343 ± 35 | 358 ± 36 |  |  |  |  |  |  |  |  | -37 ± 4 |  |
|  | CCCCCCn1cc[n+](C)c1.F[B-](F)(F)F [1-hexyl-3-methylimidazolium tetrafluoroborate] | 416 ± 42 | 433 ± 44 |  |  |  |  |  |  |  |  | -79 ± 4 |  |
|  | CCCCn1cc[n+](C)c1.COCCOCCOS(=O)(=O)[O-] [1-butyl-3-methylimidazolium 2-(2-methoxyethoxy)ethyl sulfate] | 643 ± 65 | 652 ± 66 | 4070 ± 730 | 1676 ± 260 | 1033 ± 140 | 731 ± 82 | 392 ± 36 | 228 ± 17 | 146 ± 9 | 98 ± 5 | -62 ± 4 |  |
|  | CCCCCCCCCCCCCC[N+](C)(CCOCCOCCOCCOCCOCCO)CCOCCOCCOCCOCCOCCO.COS(=O)(=O)[O-] | 1066 ± 110 | 1098 ± 110 | 10240 ± 4400 |  | 2790 ± 910 | 1910 ± 560 | 964 ± 230 | 511 ± 98 | 300 ± 44 | 187 ± 21 |  |  |
| 368 ± 3 | CCCC[n+]1cc(C)cc(C)c1.[Br-] [1-butyl-3,5-dimethylpyridinium bromide] |  |  |  |  |  |  |  |  |  |  | -24 ± 4 |  |
|  | CCCC[n+]1cccc(C)c1.F[B-](F)(F)F [1-butyl-3-methylpyridinium tetrafluoroborate] | 405 ± 41 | 421 ± 43 | 517 ± 53 | 246 ± 22 | 177 ± 13 | 132 ± 8 | 78 ± 4 | 48 ± 3 | 33 ± 2 | 23 ± 1 | -76 ± 4 |  |
|  | CCCCn1cc[n+](C)c1.O=C([O-])C(F)(F)F [1-butyl-3-methylimidazolium trifluoroacetate] |  |  | 155 ± 10 | 89 ± 5 | 70 ± 4 | 53 ± 3 | 37 ± 2 | 26 ± 1 | 19 ± 1 | 15 ± 1 |  |  |
|  | CCCCCC[n+]1ccn(C)c1.O=S(=O)([N-]S(=O)(=O)C(F)(F)F)C(F)(F)F | 583 ± 59 | 604 ± 61 | 148 ± 10 | 86 ± 5 | 68 ± 4 | 55 ± 3 | 37 ± 2 | 26 ± 1 | 19 ± 1 | 15 ± 1 | -84 ± 4 | 266 ± 3 |
|  | CCCCCCn1cc[n+](C)c1.[Br-] [3-hexyl-1-methyl-1H-imidazolium bromide] | 344 ± 35 | 357 ± 36 |  |  |  |  |  |  |  |  | -49 ± 4 |  |
|  | CC(=O)[O-].CCCCn1cc[n+](C)c1 [1-butyl-3-methylimidazolium acetate] |  |  | 1630 ± 240 | 646 ± 80 | 440 ± 44 | 309 ± 27 | 165 ± 12 | 97 ± 6 | 62 ± 3 | 42 ± 2 |  |  |
| 495 ± 3 | CCCC[n+]1ccc(N(C)C)cc1.[Br-] [1-butyl-4-(dimethylamino)pyridinium bromide] |  |  |  |  |  |  |  |  |  |  |  |  |
|  | CCOS(=O)(=O)[O-].CC[n+]1ccccc1 [1-ethylpyridinium ethyl sulfate] |  |  | 356 ± 32 | 183 ± 14 | 137 ± 9 | 105 ± 6 | 66 ± 4 | 43 ± 2 | 31 ± 2 | 23 ± 1 |  |  |
|  | CCn1cc[n+](C)c1.O=S(=O)([N-]S(=O)(=O)C(F)(F)F)C(F)(F)F |  |  | 52 ± 3 | 36 ± 2 | 32 ± 2 | 26 ± 1 | 19 ± 1 | 15 ± 1 | 12 ± 1 | 9 ± 1 |  |  |
| 378 ± 3 | CCCC[n+]1ccccc1.[Br-] [1-butylpyridinium bromide] |  |  |  |  |  |  |  |  |  |  |  |  |

| SMILES | Triple point temperature ([2]; Crystal) [K] | molar heat capacity at constant pressure ([1]; 298 K) [J/K/mol] | molar heat capacity at constant pressure ([1]; 323 K) [J/K/mol] | viscosity ([2]; 283 K) [mPa·s] | viscosity ([2]; 293 K) [mPa·s] | viscosity ([2]; 298 K) [mPa·s] | viscosity ([2]; 303 K) [mPa·s] | viscosity ([2]; 313 K) [mPa·s] | viscosity ([2]; 323 K) [mPa·s] | viscosity ([2]; 333 K) [mPa·s] | viscosity ([2]; 343 K) [mPa·s] | Glass transition temperature [2] [°C] | Triple point temperature ([2]; Metastable crystal) [K] |
| --- | --- | --- | --- | --- | --- | --- | --- | --- | --- | --- | --- | --- | --- |
| CCCCCC[n+]1ccccc1.O=S(=O)([N-]S(=O)(=O)C(F)(F)F)C(F)(F)F [1-hexylpyridinium bis(trifluromethylsulfonyl)imide] | 273 ± 3 | 612 ± 62 | 632 ± 64 | 189 ± 14 | 106 ± 7 | 80 ± 5 | 64 ± 3 | 42 ± 2 | 29 ± 2 | 21 ± 1 | 16 ± 1 | -77 ± 4 |  |
| CCCCCC[n+]1cc(C)cc(C)c1.O=S(=O)([N-]S(=O)(=O)C(F)(F)F)C(F)(F)F | 283 ± 3 | 620 ± 63 | 665 ± 67 | 251 ± 20 | 136 ± 10 | 104 ± 6 | 81 ± 4 | 52 ± 3 | 35 ± 2 | 24 ± 1 | 18 ± 1 | -76 ± 4 |  |
| CCCCCCn1cc[n+](C)c1C.O=S(=O)([N-]S(=O)(=O)C(F)(F)F)C(F)(F)F | 268 ± 3 | 686 ± 69 | 705 ± 71 | 317 ± 27 | 171 ± 13 | 131 ± 9 | 101 ± 6 | 63 ± 3 | 42 ± 2 | 30 ± 2 | 22 ± 1 | -74 ± 4 |  |
